pEC50: −log10 of the molar value. ≈ marks a conversion by molar mass, not a printed value. Where two headings read alike, the source gives them in different places.
Tests used:
[1] = test system: tg(cyp19a1b:GFP) zebrafish embryos; experiment: Refined Fish Embryo Acute Toxicity test (FET, OECD TG 236): mortality; type: in vivo, zebrafish (Danio rerio); conditions: nominal, brackets 95% CI
Procedure: (§1) Exposures were carried out in presaturated 24-well plates containing one embryo per well in 2 mL of test solution. The exposure was performed under semistatic conditions, with daily renewal of the test solution. The concentration ranges tested, along with a control with the same percentage of solvent alone, are recapitulated in Table S1. All exposure concentrations are reported as nominal. During the time course of the refined FET tests, embryos were observed after 8 h (coagulation), 24 h (lack of somite formation and nondetachment of the tail), and 48, 72, and 96 h of exposure (nondetection of the heartbeat). […] Moreover, hatching rate and nonlethal developmental effects (i.e., yolk deformity, growth retardation, spontaneous movement, edema, blood tail circulation, heart rate, pigmentation, head and tail/spinal malformations, and hemorrhage) were monitored daily. Tail/spinal malformations included lordosis, kyphosis, scoliosis, and reduced tail length.
(§2) This analysis considered all nonlethal developmental end points monitored in the refined FET assay (see above), except effects on hatching, pigmentation, spontaneous movement, and blood circulation. A teratogenic index (TI) was then calculated as the ratio LC50/EC50.
(§3) Baseline toxicity and experimental FET LC50 values were used to calculate toxic ratios (TR = predicted baseline toxicity LC50/experimental FET LC50). Compounds with TR < 10 were considered as baseline toxicants.

[2] = test system: Zebrafish embryos; conditions: cited from earlier work; for LOEC (body length, GnRH3 neurons, reproductive neuroendocrine-related genes and hormones) / NOEC (body length, GnRH3 neurons, reproductive neuroendocrine-related genes and hormones): 120h-exposure, ref Qiu et al. (2021); for LC10(96h): ref Blanc et al. (2019)
[3] = Refined Fish Embryo Acute Toxicity test (FET, OECD TG 236): mortality; type: in vivo, zebrafish (Danio rerio); conditions: tg(cyp19a1b:GFP), zebrafish, in vivo, other: waterborne exposure of embryos in test solution, LC50 (96h) experimental (FET test), nominal, brackets 95% CI
Procedure: as §1, §2, §3

[4] = test system: tg(cyp19a1b:GFP) zebrafish embryos; experiment: Refined FET: developmental effects / malformations; type: in vivo, zebrafish (Danio rerio); conditions: nominal; for EC50: Danio rerio, end of 96 h exposure, read-out: EC50 malformations (cumulative sublethal end points); for LOEC deformity of yolk: at least 10% of embryos affected
Procedure: as §1, §2

[5] = test system: cyp19a1b:GFP (brain aromatase) in tg(cyp19a1b:GFP) zebrafish embryos; experiment: EASZY assay (OECD TG 250): GFP induction; type: in vivo, zebrafish (Danio rerio); conditions: for EC50: read-out: EASZY relative EC50, nominal
Procedure: The tests were conducted according to OECD TG 250. Newly fertilized cyp19a1b-GFP eggs were transferred to glass crystallizing dishes and exposed for 96 h in a humidified climate chamber (27 ± 2 °C) under semistatic conditions with a total renewal of the test solutions each day. Each condition consisted of three crystallizing dishes, each containing 7 embryos and 15 mL of test medium. Embryos were exposed to a range of nonlethal concentrations of chemicals as determined previously based on the refined FET assays. The tested concentration ranges of bisphenols, along with a control with the same percentage of solvent alone, are summarized in Table S2. All exposure concentrations are reported as nominal. At the end of exposure, transgenic zebrafish embryos were collected for fluorescence imaging to quantify GFP intensity. At the end of the experiments, all living zebrafish embryos were euthanized as described above. […] ICI was added together with bisphenols from 0 to 4 dpf (days post fertilization). […] In all coexposure experiments, the final DMSO concentration was 0.02% (v/v).
For fluorescence imaging, GFP fold induction was expressed as mean ± SEM, and values were compared to the DMSO control using one-way ANOVA followed by Dunnett’s posthoc test. […]

[6] = molecular target: zebrafish ERβ2 (zfERβ2) (Danio rerio, UniProt Q7ZU32); experiment: ZELH-zfERβ2 luciferase reporter gene assay; type: cell-based; conditions: read-out: maximal efficacy
Chain of zebrafish ERβ2 (zfERβ2) (Q7ZU32 1-553): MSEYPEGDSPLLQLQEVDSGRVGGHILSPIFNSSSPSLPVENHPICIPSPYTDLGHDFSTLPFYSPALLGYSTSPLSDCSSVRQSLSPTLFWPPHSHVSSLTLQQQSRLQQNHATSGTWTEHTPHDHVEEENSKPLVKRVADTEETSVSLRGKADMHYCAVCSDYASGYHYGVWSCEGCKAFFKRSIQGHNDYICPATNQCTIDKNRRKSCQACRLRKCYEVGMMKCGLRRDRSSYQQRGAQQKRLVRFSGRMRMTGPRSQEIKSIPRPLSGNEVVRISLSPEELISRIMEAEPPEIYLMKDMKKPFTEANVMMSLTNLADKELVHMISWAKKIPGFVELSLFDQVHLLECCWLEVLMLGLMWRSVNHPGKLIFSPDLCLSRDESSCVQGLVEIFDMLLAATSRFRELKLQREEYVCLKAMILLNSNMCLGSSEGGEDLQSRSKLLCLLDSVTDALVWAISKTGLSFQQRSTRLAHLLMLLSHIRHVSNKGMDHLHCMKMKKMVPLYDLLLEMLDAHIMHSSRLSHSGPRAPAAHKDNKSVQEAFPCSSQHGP
Procedure: The ZELH-zfERs reporter cell line was previously established after a two-step stable transfection of the zebrafish hepatic cell line ZFL with the luciferase gene under the control of ERE (yielding the ZELH cell line that expresses no functional ER) and the zebrafish ER subtype β2 (yielding the ZELH-zfERβ2 cell line). Cells were cultured, exposed to chemicals for 72 h, and measured for luciferase activity exactly as previously described. , For each chemical, serial dilutions were prepared in DMSO and tested in three independent experiments. The final DMSO concentration in the culture medium was always 0.1% v/v. All tested concentrations refer to nominal concentrations.

[7] = test system: hERβ; set-up: method as in Grimaldi et al.; conditions: HELN-hERβ; ref Grimaldi et al.; cited from earlier work
[8] = ref Adamovsky et al.; cited from earlier work
[9] = test system: hERβ; set-up: method as in Pelch et al.; conditions: HepG2-hERβ, ref Pelch et al., cited from earlier work; for pEC50: NA = not active
[10] = test system: Adult Zebrafish; conditions: ref Ren et al. (2017); cited from earlier work
[11] = test system: cyp19a1b:GFP (brain aromatase) in tg(cyp19a1b:GFP) zebrafish embryos; experiment: Refined FET: GFP fluorescence imaging at 96 h; type: in vivo, zebrafish (Danio rerio); conditions: nominal
Procedure: as §1, with “All the tests were conducted according to OECD TG 236, except for the temperature (27 ± 2 °C), which was aligned with the OECD TG 250 (see below). Exposures” for “Exposures”, “length. […] To do so, each embryo was photographed and analyzed as described by Brion et al. At the end of the refined FET assay, all living zebrafish embryos were euthanized using a protocol combining anesthesia induced by 168 mg/L tricaine (Pharmaq, delivered from Vetofish, Chateauneuf-les-Martigues, France) and the addition of bleach solution (sodium hypochlorite 6.15%; 1 volume of bleach to 5 volumes of water) to induce death.” for “length.”
For fluorescence imaging, GFP fold induction was expressed as mean ± SEM, and values were compared to the DMSO control using one-way ANOVA followed by Dunnett’s posthoc test.

[12] = zebrafish embryos, ref Gao et al.
[13] = zebrafish embryos, ref Ren et al. (2017)
[14] = 150h exposure, ref Song et al. (2014)

Row | SMILES | LC50 at 96 h [3] [µg/mL] | EC50 [4] [µg/mL] | LOEC edema [4] [mg/L] | LOEC head malformations [4] [mg/L] | LOEC heart rate disruption [4] [mg/L] | LOEC hemorrhage [4] [mg/L] | LOEC no blood tail circulation [4] [mg/L] | LOEC tail/spinal malformations [4] [mg/L] | LOEC deformity of yolk [4] [mg/L] | Emax [6] [%] | pEC50 [7] | maximal efficacy [7] [%] | Log Kow [8] | maximal efficacy [9] [%] | other results
1 | Nc1ccc(Cl)c(Cl)c1 [3,4-DCA, reference compound] |  |  |  |  |  |  |  |  |  |  |  |  |  |  | LC50 (96h) experimental (FET test) [1]: 2.46 µg/mL (≈ 15.2 µM); mean LC50 of FET positive control ([2]; ref OECD TG 236 validation report): 2.7 µg/mL
2 | Oc1ccc(Oc2ccc(O)cc2)cc1 [4,4’-ODP, 4-(4-hydroxyphenoxy)phenol] | 17.1 (≈ 84.3 µM) | 0.35 (≈ 1.73 µM) | 0.99 | 2.96 | 2.96 | 0.99 | 8.89 | 2.96 | 2.96 | 61 | 5.51 | 72 |  |  | LOEC growth retardation [4]: 8.89 mg/L; LOEC no/Less pigmentation [4]: 0.99 mg/L; EC50 ([5]; Danio rerio, 96 h, 96 h): 0.363 µg/mL (≈ 1.8 µM)
3 | CCC(C)(c1ccc(O)cc1)c1ccc(O)cc1 [BPB, 4-[2-(4-hydroxyphenyl)butan-2-yl] phenol] | 6.85 (≈ 28.3 µM) | 5.4 (≈ 22.3 µM) | 5 | 10 | 10 | 10 |  |  | 10 | 66 | 6.89 | 60 | 3.95 | 56 | LOEC no spontaneous movement [4]: 10 mg/L; minimal effective concentration ([5]; Danio rerio, 96 h, read-out: EASZY LOEC (GFP induction), nominal): 0.312 µg/mL; LOEC (body length, GnRH3 neurons, reproductive neuroendocrine-related genes and hormones) [2]: 100 µg/L; NOEC (body length, GnRH3 neurons, reproductive neuroendocrine-related genes and hormones) [2]: 1 µg/L; NOEC (developmental toxicity) ([2]; Wildtype (AB/TL), 1-6 dpf static + 6-9 dpf semistatic, ref Catron et al. (2018; 2019)): 5.1 µM; LC50 ([2]; read-out: LC50(96h), Wildtype AB, 96h-exposure, ref Arrokhman et al. (2023)): 28000 nM; LC50 (96h) literature ([2]; zebrafish embryos, ref Arrokhman et al.): 6.79 µg/mL (≈ 28 µM); LC50 (96h) literature [2, 12]: 3.52 µg/mL (≈ 14.5 µM); Body length LOEC [2, 13]: 2 mg/L; Body length NOEC [2, 13]: 1 mg/L; LC50(24h) [2, 13]: 7.18 µg/mL (≈ 29.6 µM); LC50(48h) [2, 13]: 6.54 µg/mL (≈ 27 µM); LC50(72h) [2, 13]: 4.53 µg/mL (≈ 18.7 µM); LC50 (96h) literature ([2]; zebrafish embryos, ref Ren et al.): 3.88 µg/mL (≈ 16 µM); LC50(24h) [10]: 5.07 µg/mL (≈ 20.9 µM); LC50(48h) [10]: 4.64 µg/mL (≈ 19.1 µM); LC50(72h) [10]: 4.15 µg/mL (≈ 17.1 µM); LC50(96h) [10]: 4.15 µg/mL (≈ 17.1 µM)
4 | Cc1cc(C(C)(C)c2ccc(O)c(C)c2)ccc1O [BPC, 4-[2-(4-hydroxy-3-methylphenyl)propan-2-yl]-2-methylphenol] | 4.92 (≈ 19.2 µM) | 2.77 (≈ 10.8 µM) |  |  | 8.53 | 8.53 | 8.53 | 8.53 |  | 66 |  |  | 4.32 |  | LC50 (96h) literature [2, 12]: 2.22 µg/mL (≈ 8.66 µM)
5 | O=S(=O)(c1ccc(O)cc1)c1ccc(O)cc1 [BPS, 4-(4-hydroxyphenyl)sulfonylphenol] |  |  |  |  |  |  |  |  | 400 | 85 | 5.76 | 100 |  | 77 | EC50 ([11]; Danio rerio, Hill model, read-out: EC50 GFP induction in refined FET): 35.7 µg/mL (≈ 143 µM); EC10 GFP induction in refined FET [11]: 16.6 µg/mL (≈ 66.3 µM); EC20 GFP induction in refined FET [11]: 22.0 µg/mL (≈ 87.9 µM); EC50 ([5]; Danio rerio, 96 h, 96 h): 62.7 µg/mL (≈ 251 µM); pEC50 [9]: 5.68; LC10(96h) ([2]; 4-days exposure): > 100 µg/mL; Hatching success EC50(72h) ([2]; 4-days exposure, ref Moreman et al. (2017)): 155 (15) mg/L; LOEC (body length, GnRH3 neurons, reproductive neuroendocrine-related genes and hormones) [2]: 100 µg/L; NOEC (body length, GnRH3 neurons, reproductive neuroendocrine-related genes and hormones) [2]: 1 µg/L; LC10(96h) [2]: > 400000 nM; Body length LOEC [2, 13]: 350 mg/L; Body length NOEC [2, 13]: 300 mg/L; Hatching rate EC50(120h) [2, 13]: 200 µg/mL; Heart rate EC50(78h) [2, 13]: 318 µg/mL
6 | O=S(=O)(c1ccc(O)cc1)c1ccc(OCc2ccccc2)cc1 [BPS-MPE, 4-(4-phenylmethoxyphenyl) sulfonylphenol] | 3.17 (≈ 9.31 µM) | 3.45 (≈ 10.1 µM) |  |  |  |  |  |  |  |  |  |  | 4.18 | 4 | 
8 | CC(C)(c1cc(Cl)c(O)c(Cl)c1)c1cc(Cl)c(O)c(Cl)c1 [TCBPA, Tetrachloro-bisphenol A] | 0.88 (≈ 2.4 µM) | 0.48 (≈ 1.31 µM) | 0.5 | 1 | 1 |  | 1 | 0.5 | 1 | 42 | 4.17 | 21 | 6.19 | 15 | LOEC no spontaneous movement [4]: 2 mg/L; LOEC no/Less pigmentation [4]: 1 mg/L; estrogenic activity in EASZY assay ([5]; zebrafish, in vivo): absence of estrogenic activity; concentrations causing lethal effects ([2]; 3-6 dpf exposure, ref Riu et al. (2014)): above 1 µM; LC50(144h) [2, 14]: 0.75 µg/mL (≈ 2.05 µM); LOAELs [2, 14]: 1 mg/L; LC50 (96h) literature ([2]; zebrafish embryos, ref Song et al.): ≈ 1 mg/L

Reference: publication PMC13130965, “An Integrated Approach Combining Regulatory Tests in tg(cyp19a1b:GFP) Zebrafish Embryos to Assess Toxicity, Developmental Effects, and Estrogenic Activity of Chemicals: A Case Study with Bisphenol A Substitutes” (Environmental Science & Technology, 2026)
